Data as given in patent US20240391862A1, “(1,4,5-TRISUBSTITUTED-1H-PYRAZOL-3-YL)OXY-2-ALKOXY ALKYL ACIDS AND THEIR DERIVATIVES, THEIR SALTS AND THEIR USE AS HERBICIDAL AGENTS” (Bayer AKtiengesellschaft, priority 2021, published 2024).

Experiments:
ORYSA [1] = assay: Post-emergence herbicidal effect and crop plant compatibility, greenhouse pot test; type: in vivo, Oryza sativa; settings: for Post-emergence effect at 320 g/ha against ORYSA in %: one-leaf stage, rated visually after about 3 weeks vs untreated controls
How it was run: (§1)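 Sandy loam pots, greenhouse. One-leaf stage (2–3 wk after sowing) foliar spray; WP/EC in water + 0.5% additive, 600 l/ha; 20–320 g/ha. Visual score ~3 wk, 0–100% vs untreated.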

ZEAMX [2] = assay: as above; type: in vivo, Zea mays; settings: one-leaf stage, rated visually after about 3 weeks vs untreated controls; for plant injury at 80 g/ha: Zea mays, 504 h, read-out: Post-emergence effect at 80 g/ha against ZEAMX in %
How it was run: as §1

BRSNW = assay: Pre-emergence herbicidal effect and crop plant compatibility, greenhouse pot test; type: in vivo, Brassica napus; settings: scored visually after about 3 weeks vs untreated controls
Description: (§2) Seeds of monocotyledonous and dicotyledonous weed plants and crop plants are placed in plastic or organic planting pots and covered with soil. The compounds of the invention, formulated in the form of wettable powders (WP) or as emulsion concentrates (EC), are then applied to the surface of the covering soil as aqueous suspension or emulsion with addition of 0.5% additive at a water application rate equivalent to 600 l/ha. After the treatment, the pots are placed in a greenhouse and kept under good growth conditions for the trial plants. After about 3 weeks, the effect of the preparations is scored visually in comparison with untreated controls as percentages. For example, 100% activity=the plants have died, 0% activity=like control plants.
(§3) Tables 1a to 19c below show the effects/crop compatibilities of selected compounds of the general formula (I) on various harmful plants at an application rate corresponding to 20 to 320 g/ha, which were obtained by the trial procedure specified above.
(§4) • ALOMY: Alopecurus myosuroides SETVI: Setaria viridis • AVEFA: Avena fatua POLCO: Fallopia convolvulus • AMARE: Amaranthus retroflexus ECHCG: Echinochloa crus-galli • LOLRJ: Lolium rigidum STEME: Stellaria media • VERPE: Veronica persica MATIN: Tripleurospermum inodorum • DIGSA: Digitaria sanguinalis ABUTH: Abutylon threophrasti • TRZAS: Triticum aestivum VIOTR: Viola tricolor • BRSNW: Brassica napus ZEAMX: Zea mays • PHBPU: Ipomoea purpurea GLXMA: Glycine max • ORYSA: Oryza sativa HORMU: Hordeum murinum

SETVI [3] = assay: Pre-emergence herbicidal effect, greenhouse pot test; type: in vivo, Setaria viridis; settings: Setaria viridis, 504 h, 320 g/ha, scored visually after about 3 weeks vs untreated controls, read-out: Pre-emergence effect at 320 g/ha against SETVI in %
Description: as §2, §3, §4

GLXMA [4] = assay: Pre-emergence herbicidal effect and crop plant compatibility, greenhouse pot test; type: in vivo, Glycine max; settings: scored visually after about 3 weeks vs untreated controls
Description: as §2, §3, §4

ORYSA [5] = assay: as above; type: in vivo, Oryza sativa; settings: scored visually after about 3 weeks vs untreated controls
Description: as §2, §3, §4

AMARE = assay: Pre-emergence herbicidal effect, greenhouse pot test; type: in vivo, Amaranthus retroflexus; settings: scored visually after about 3 weeks vs untreated controls; for pest or weed control at 320 g/ha: Amaranthus retroflexus, 504 h, read-out: Pre-emergence effect at 320 g/ha against AMARE in %
Description: as §2, §3, §4

TRZAS [6] = assay: Pre-emergence herbicidal effect and crop plant compatibility, greenhouse pot test; type: in vivo, Triticum aestivum; settings: scored visually after about 3 weeks vs untreated controls
Description: as §2, §3, §4

VERPE [7] = assay: Post-emergence herbicidal effect, greenhouse pot test; type: in vivo, Veronica persica; settings: Veronica persica, 504 h, 320 g/ha, read-out: Post-emergence effect against VERPE in %
How it was run: (§5)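 Visual % activity scored roughly 3 weeks post-spray against untreated plants, where 100% means death and 0% equals control. Plants were treated at the one-leaf stage, 2 to 3 weeks after sowing in sandy loam, at 20 to 320 g/ha.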

ECHCG [8] = assay: as above; type: in vivo, Echinochloa crus-galli; settings: Echinochloa crus-galli, 504 h, 320 g/ha, read-out: Post-emergence effect against ECHCG in %
How it was run: as §5

SETVI [9] = assay: as above; type: in vivo, Setaria viridis; settings: Setaria viridis, 504 h, 320 g/ha, read-out: Post-emergence effect against SETVI in %
How it was run: as §5

ZEAMX [10] = assay: Pre-emergence herbicidal effect and crop plant compatibility, greenhouse pot test; type: in vivo, Zea mays; settings: scored visually after about 3 weeks vs untreated controls
Description: as §2, §3, §4

TRZAS [11] = assay: Post-emergence herbicidal effect and crop plant compatibility, greenhouse pot test; type: in vivo, Triticum aestivum; settings: visual rating about 3 weeks after treatment, crop plant
How it was run: as §1

GLXMA [12] = assay: as above; type: in vivo, Glycine max; settings: visual rating about 3 weeks after treatment, crop plant
Description: as §4
Seeds of monocotyledonous and dicotyledonous weeds and crop plants are placed in sandy loam in plastic or organic planting pots, covered with soil and cultivated in a greenhouse under controlled growth conditions. 2 to 3 weeks after sowing, the trial plants are treated at the one-leaf stage. The compounds of the invention, formulated in the form of wettable powders (WP) or as emulsion concentrates (EC), are then sprayed onto the green parts of the plants as aqueous suspension or emulsion with addition of 0.5% additive at a water application rate of 600 l/ha (converted). After the test plants have been kept in the greenhouse under optimum growth conditions for about 3 weeks, the activity of the preparations is rated visually in comparison to untreated controls. For example, 100% activity=the plants have died, 0% activity=like control plants.
Tables 20a to 38c below show the effects/crop compatibilities of selected compounds of the general formula (I) on various harmful plants at an application rate corresponding to 20 to 320 g/ha, which were obtained by the trial procedure specified above.

ECHCG [13] = assay: Pre-emergence herbicidal effect, greenhouse pot test; type: in vivo, Echinochloa crus-galli; settings: scored visually after about 3 weeks vs untreated controls; for pest or weed control at 320 g/ha: Echinochloa crus-galli, 504 h, read-out: Pre-emergence effect at 320 g/ha against ECHCG in %
Description: as §2, §3, §4

VIOTR = assay: as above; type: in vivo, Viola tricolor; settings: scored visually after about 3 weeks vs untreated controls
Description: as §2, §3, §4

PHBPU = assay: as above; type: in vivo, Ipomoea purpurea; settings: scored visually after about 3 weeks vs untreated controls
Description: as §2, §3, §4

POLCO = assay: as above; type: in vivo, Fallopia convolvulus; settings: scored visually after about 3 weeks vs untreated controls; for pest or weed control at 320 g/ha: Fallopia convolvulus, 504 h, read-out: Pre-emergence effect at 320 g/ha against POLCO in %
Description: as §2, §3, §4

LOLRI = assay: as above; type: in vivo, Lolium rigidum; settings: scored visually after about 3 weeks vs untreated controls
Description: as §2, §3, §4

AVEFA = assay: as above; type: in vivo, Avena fatua; settings: scored visually after about 3 weeks vs untreated controls
Description: as §2, §3, §4

DIGSA = assay: as above; type: in vivo, Digitaria sanguinalis; settings: 320 g/ha, scored visually after about 3 weeks vs untreated controls
Description: as §2, §3, §4

ABUTH = assay: as above; type: in vivo, Abutilon theophrasti; settings: 320 g/ha, scored visually after about 3 weeks vs untreated controls
Description: as §2, §3, §4

MATIN = assay: as above; type: in vivo, Tripleurospermum inodorum; settings: scored visually after about 3 weeks vs untreated controls; for pest or weed control at 320 g/ha: Tripleurospermum inodorum, 504 h, read-out: Pre-emergence effect at 320 g/ha against MATIN in %
Description: as §2, §3, §4

VERPE [14] = assay: as above; type: in vivo, Veronica persica; settings: scored visually after about 3 weeks vs untreated controls
Description: as §2, §3, §4

ALOMY = assay: as above; type: in vivo, Alopecurus myosuroides; settings: scored visually after about 3 weeks vs untreated controls
Description: as §2, §3, §4

Structure (SMILES)	Post-emergence effect at 320 g/ha against ORYSA in % (ORYSA [1])	plant injury at 80 g/ha (ZEAMX [2]; 80 g/ha)	Pre-emergence effect at 80 g/ha against BRSNW in % (BRSNW)	Pre-emergence effect at 320 g/ha against BRSNW in % (BRSNW)	pest or weed control at 320 g/ha (SETVI [3])	Pre-emergence effect at 80 g/ha against GLXMA in % (GLXMA [4])	Pre-emergence effect at 320 g/ha against GLXMA in % (GLXMA [4])	Pre-emergence effect at 80 g/ha against ORYSA in % (ORYSA [5])	pest or weed control at 320 g/ha (AMARE)	Pre-emergence effect at 320 g/ha against TRZAS in % (TRZAS [6])	Pre-emergence effect at 320 g/ha against ZEAMX in % (ZEAMX [10])	Pre-emergence effect at 80 g/ha against ECHCG in % (ECHCG [13])	pest or weed control at 320 g/ha (ECHCG [13])	Pre-emergence effect at 80 g/ha against VIOTR in % (VIOTR)	Pre-emergence effect at 320 g/ha against VIOTR in % (VIOTR)	Pre-emergence effect at 80 g/ha against PHBPU in % (PHBPU)	Pre-emergence effect at 320 g/ha against PHBPU in % (PHBPU)	Pre-emergence effect at 20 g/ha against POLCO in % (POLCO)	Pre-emergence effect at 80 g/ha against POLCO in % (POLCO)	pest or weed control at 320 g/ha (POLCO)	also measured
CCOC(=O)C(OCC)Oc1nn(-c2ncccc2F)c(-c2ccc(Cl)cc2)c1Br (stereo not shown) [Example I-02]	10%	10%	0%	0%	80%	0%	0%	0%	–	–	–	–	–	–	–	–	–	–	–	–	Pre-emergence effect at 320 g/ha against ORYSA in % (ORYSA [5]; 320 g/ha): 0%
COC(=O)C(OC)Oc1nn(-c2ncccc2F)c(-c2ccc(Cl)cc2)c1Br (stereo not shown) [Example I-03]	10%	20%	20%	–	–	20%	–	0%	80%	0%	20%	–	–	–	–	–	–	–	–	–	pest or weed control at 320 g/ha (VERPE [7]): 90%; pest or weed control at 320 g/ha (ECHCG [8]): 80%; pest or weed control at 320 g/ha (SETVI [9]): 80%; Pre-emergence effect at 80 g/ha against ZEAMX in % (ZEAMX [10]; 80 g/ha): 20%
CCOC(=O)C(OCC)Oc1nn(-c2ccc(Cl)cc2F)c(-c2ccc(F)cc2F)c1Br (stereo not shown) [Example I-09]	–	–	0%	0%	–	10%	10%	–	–	20%	10%	–	–	–	–	–	–	–	–	–	Post-emergence effect against ORYSA (ORYSA [1]; 80 g/ha, visual rating about 3 weeks after treatment, crop plant): 10%; Pre-emergence effect at 80 g/ha against TRZAS in % (TRZAS [6]; 80 g/ha): 0%; Post-emergence effect at 80 g/ha against ZEAMX in % (ZEAMX [2]; 80 g/ha): 0%; Post-emergence effect at 320 g/ha against ZEAMX in % (ZEAMX [2]; 320 g/ha): 0%; Post-emergence effect against TRZAS (TRZAS [11]; 80 g/ha): 0%; Post-emergence effect against TRZAS (TRZAS [11]; 320 g/ha): 0%; Post-emergence effect against GLXMA (GLXMA [12]; 80 g/ha): 10%; Post-emergence effect against GLXMA (GLXMA [12]; 320 g/ha): 20%
COC(=O)C(OC)Oc1nn(-c2cc(F)ccc2F)c(-c2cncc(F)c2)c1C1CC1 (stereo not shown) [Example I-31, Methyl {[4-cyclopropyl-1-(2,5-difluorophenyl)-5-(5-fluoropyridin-3-yl)-1H-pyrazol-3-yl]oxy}(methoxy)acetate]	–	–	–	–	90%	–	–	–	100%	–	–	90%	100%	100%	100%	90%	90%	80%	100%	100%	Pre-emergence effect at 20 g/ha against AMARE in % (AMARE; 20 g/ha): 80%; Pre-emergence effect at 80 g/ha against AMARE in % (AMARE): 100%; Pre-emergence effect at 320 g/ha against LOLRI in % (LOLRI): 100%; Pre-emergence effect at 80 g/ha against AVEFA in % (AVEFA): 90%; Pre-emergence effect at 320 g/ha against AVEFA in % (AVEFA): 90%; Pre-emergence effect at 320 g/ha against DIGSA in % (DIGSA): 90%; Pre-emergence effect at 320 g/ha against ABUTH in % (ABUTH): 80%; Pre-emergence effect at 80 g/ha against MATIN in % (MATIN): 90%; pest or weed control at 320 g/ha (MATIN): 100%; Pre-emergence effect at 320 g/ha against VERPE in % (VERPE [14]): 90%; Pre-emergence effect at 320 g/ha against ALOMY in % (ALOMY): 100%
COC(Oc1nn(-c2cc(F)ccc2F)c(-c2cncc(F)c2)c1C1CC1)C(=O)O (stereo not shown) [Example I-34]	–	–	–	–	90%	–	–	–	100%	–	–	90%	100%	100%	100%	90%	90%	90%	90%	90%	Pre-emergence effect at 20 g/ha against VIOTR in % (VIOTR; 20 g/ha): 80%; Pre-emergence effect at 80 g/ha against AMARE in % (AMARE): 100%; Pre-emergence effect at 80 g/ha against LOLRI in % (LOLRI; 80 g/ha): 90%; Pre-emergence effect at 320 g/ha against LOLRI in % (LOLRI): 100%; Pre-emergence effect at 20 g/ha against AVEFA in % (AVEFA; 20 g/ha): 80%; Pre-emergence effect at 80 g/ha against AVEFA in % (AVEFA): 90%; Pre-emergence effect at 320 g/ha against AVEFA in % (AVEFA): 100%; Pre-emergence effect at 320 g/ha against DIGSA in % (DIGSA): 80%; Pre-emergence effect at 320 g/ha against ABUTH in % (ABUTH): 90%; Pre-emergence effect at 80 g/ha against MATIN in % (MATIN): 90%; pest or weed control at 320 g/ha (MATIN): 90%; Pre-emergence effect at 320 g/ha against VERPE in % (VERPE [14]): 80%; Pre-emergence effect at 80 g/ha against ALOMY in % (ALOMY; 80 g/ha): 90%; Pre-emergence effect at 320 g/ha against ALOMY in % (ALOMY): 100%
